From patent US20250144177A1 (Katholieke Universiteit Leuven, priority 2022, published 2025)
Non-standard residues stand in square brackets, D forms with d. Residues, ends and D or L forms follow the SMILES beside them. No end group written: not given here. Orn = NCCC[C@H](N)C(=O)O

Tests used:
plasmin [1] = target: plasmin (Homo sapiens, UniProt P00747); assay: Resistance to proteolytic degradation by plasmin (nano-LC/MS); assay type: in vitro ADME; conditions: peptide 50 ng/ml, 37° C., plasmin 50 μg/ml, pH 7.4
Chain of plasmin (Homo sapiens, UniProt P00747) (P00747 581-810 limits assumed, species assumed): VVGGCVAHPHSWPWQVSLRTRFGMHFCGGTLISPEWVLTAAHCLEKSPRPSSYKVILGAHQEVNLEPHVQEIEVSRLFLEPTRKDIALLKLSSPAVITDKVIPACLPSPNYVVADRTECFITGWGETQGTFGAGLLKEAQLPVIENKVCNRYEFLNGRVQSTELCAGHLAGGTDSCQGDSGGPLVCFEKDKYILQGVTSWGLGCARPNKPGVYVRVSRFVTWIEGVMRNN
Chain of plasmin (Homo sapiens, UniProt P00747) (P00747 97-580 partner limits assumed, species assumed): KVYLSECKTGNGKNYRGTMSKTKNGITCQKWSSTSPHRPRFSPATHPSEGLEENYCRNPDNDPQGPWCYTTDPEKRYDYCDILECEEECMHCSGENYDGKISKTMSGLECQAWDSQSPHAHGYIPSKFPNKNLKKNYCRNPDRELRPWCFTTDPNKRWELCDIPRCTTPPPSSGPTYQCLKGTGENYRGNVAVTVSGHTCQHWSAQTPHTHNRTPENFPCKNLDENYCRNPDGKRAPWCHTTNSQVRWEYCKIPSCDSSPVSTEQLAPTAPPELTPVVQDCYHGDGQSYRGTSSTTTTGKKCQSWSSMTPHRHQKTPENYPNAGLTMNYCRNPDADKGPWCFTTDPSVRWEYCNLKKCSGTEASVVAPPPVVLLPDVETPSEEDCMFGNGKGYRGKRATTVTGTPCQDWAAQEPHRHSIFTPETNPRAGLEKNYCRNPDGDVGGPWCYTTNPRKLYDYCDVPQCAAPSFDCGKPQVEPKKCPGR
Excerpt: (§1) The following peptides were compared for resistance against proteolytic degradation: CXCL9 (74-103) with L-amino acids (=L-amino acid peptide); CXCL9 (74-103) with D-amino acids (=D-amino acid peptide) and Acetyl-OOOQONGOOHQOOOQQOVROSQRORQOOTT [SEQ ID NO:2] This is a peptide derived from CXCL9 (74-103) with an acetyl-group on the N-terminus, lysines replaced by ornithine and VL (at positions 88 and 89) replaced by QQ and serine (at position 97) also replaced by ornithine (=ornithine peptide).
(§2) Incubations were performed with peptides at 50 ng/ml and 37° C. for 5 minutes up to 24 hours with trypsin, plasmin or cathepsin G. After the incubation, the reaction was stopped through addition of trifluoroacetic acid (to reach a final pH<4) and purified by nano-LC with on-line detection of eluted peptides by mass spectrometry.
(§3) Sample buffer for incubations with plasmin: 50 mM Tris-HCl 0.5 M NaCl PH 7.4; final plasmin conc. 50 μg/ml Sample buffer for incubations with cathepsin G: 20 mM Tris-HCl+1 mM CaCl2 pH 7.4; final conc. Cathepsin G at 13 mU/litre.

[2] = as above; assay type: in vitro ADME; conditions: isolated enzyme plasmin; peptide 50 ng/ml, 37° C., plasmin 50 μg/ml, pH 7.4; after 4 h incubation; read-out: degraded with plasmin
Excerpt: as §1, §2, §3

cathepsin G [3] = target: T1, cathepsin G (Homo sapiens, UniProt P08311); assay: Resistance to proteolytic degradation by cathepsin G (nano-LC/MS); assay type: in vitro ADME; conditions: peptide 50 ng/ml, 37° C., cathepsin G 13 mU/litre, pH 7.4
T1 sequence (P08311 21-244): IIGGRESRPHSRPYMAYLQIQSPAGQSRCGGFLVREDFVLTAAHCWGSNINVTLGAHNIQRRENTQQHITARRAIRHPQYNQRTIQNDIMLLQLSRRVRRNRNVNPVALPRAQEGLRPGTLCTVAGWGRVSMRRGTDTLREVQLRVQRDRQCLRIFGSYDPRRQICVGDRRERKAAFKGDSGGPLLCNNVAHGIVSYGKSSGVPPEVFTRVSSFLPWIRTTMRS
Excerpt: as §1, §2, §3

trypsin = assay: 100 mM Tris-HCl pH 8.5; final trypsin (from Sigma) conc. 250 ng/ml; conditions: 37° C., up to 24 hours
plasmin [4] = assay: 50 mM Tris-HCl 0.5 M NaCl PH 7.4; final plasmin conc. 50 μg/ml; conditions: 37° C., up to 24 hours
cathepsin G [5] = assay: 20 mM Tris-HCl+1 mM CaCl2 pH 7.4; final conc. Cathepsin G at 13 mU/litre; conditions: 37° C., up to 24 hours
[6] = Resistance to proteolytic degradation by cathepsin G (nano-LC/MS); assay type: in vitro ADME; conditions: cathepsin G (isolated protease); peptide 50 ng/ml, 37° C., cathepsin G 13 mU/litre, pH 7.4; after 4 h; read-out: degraded with cathepsin G
Excerpt: as §1, §2, §3

K. pneumonia = conditions: preventive treatment / pre-treatment; cited from earlier work

## CC(=O)N[C@@H](CCCN)C(=O)N[C@@H](CCCN)C(=O)N[C@@H](CCCN)C(=O)N[C@@H](CCC(N)=O)C(=O)N[C@@H](CCCN)C(=O)N[C@@H](CC(N)=O)C(=O)NCC(=O)N[C@@H](CCCN)C(=O)N[C@@H](CCCN)C(=O)N[C@@H](Cc1c[nH]cn1)C(=O)N[C@@H](CCC(N)=O)C(=O)N[C@@H](CCCN)C(=O)N[C@@H](CCCN)C(=O)N[C@@H](CCCN)C(=O)N[C@@H](CCC(N)=O)C(=O)N[C@@H](CCC(N)=O)C(=O)N[C@@H](CCCN)C(=O)N[C@H](C(=O)N[C@@H](CCCNC(=N)N)C(=O)N[C@@H](CCCN)C(=O)N[C@@H](CO)C(=O)N[C@@H](CCC(N)=O)C(=O)N[C@@H](CCCNC(=N)N)C(=O)N[C@@H](CCCN)C(=O)N[C@@H](CCCNC(=N)N)C(=O)N[C@@H](CCC(N)=O)C(=O)N[C@@H](CCCN)C(=O)N[C@@H](CCCN)C(=O)N[C@H](C(=O)N[C@H](C(=O)O)[C@@H](C)O)[C@@H](C)O)C(C)C [Ornithine peptide, Acetyl-OOOQONGOOHQOOOQQOVROSQRORQOOTT] (Ac-[Orn][Orn][Orn]Q[Orn]NG[Orn][Orn]HQ[Orn][Orn][Orn]QQ[Orn]VR[Orn]SQR[Orn]RQ[Orn][Orn]TT-OH; C-terminus assumed)
Plasmin [1]; after 5 min
  cleavage after arginine with plasmin: < 10%
[2]
  metabolised at 4 h: > 70%
Cathepsin G [3]; 5 min up to 4 h incubation
  cleavage with cathepsin G: no cleavage

## CXCL9 (74-103) with D-amino acids
trypsin
  not cleaved: fully resistant to trypsin at incubations from 5 min. up to 4 hours
Plasmin [4]
  not cleaved: resistant to plasmin at incubations between 5 min and 8 hours

## CC(C)C[C@@H](NC(=O)[C@H](NC(=O)[C@@H](CCCCN)NC(=O)[C@@H](CCCCN)NC(=O)[C@@H](CCCCN)NC(=O)[C@@H](CCC(N)=O)NC(=O)[C@@H](Cc1c[nH]cn1)NC(=O)[C@@H](CCCCN)NC(=O)[C@@H](CCCCN)NC(=O)CNC(=O)[C@@H](CC(N)=O)NC(=O)[C@@H](CCCCN)NC(=O)[C@@H](CCC(N)=O)NC(=O)[C@@H](CCCCN)NC(=O)[C@@H](CCCCN)NC(=O)[C@H](N)CCCCN)C(C)C)C(=O)N[C@H](CCCCN)C(=O)N[C@@H](C(=O)N[C@H](CCCNC(=N)N)C(=O)N[C@H](CCCCN)C(=O)N[C@H](CO)C(=O)N[C@H](CCC(N)=O)C(=O)N[C@H](CCCNC(=N)N)C(=O)N[C@H](CO)C(=O)N[C@H](CCCNC(=N)N)C(=O)N[C@H](CCC(N)=O)C(=O)N[C@H](CCCCN)C(=O)N[C@H](CCCCN)C(=O)N[C@@H](C(=O)N[C@@H](C(=O)O)[C@H](C)O)[C@H](C)O)C(C)C [D-amino acid peptide] (H-[dK][dK][dK][dQ][dK][dN]G[dK][dK][dH][dQ][dK][dK][dK][dV][dL][dK][dV][dR][dK][dS][dQ][dR][dS][dR][dQ][dK][dK][dT][dT]-OH; N-terminus and C-terminus assumed)
Plasmin [1]; between 5 min and 8 hours
  resistance to plasmin: resistant
Cathepsin G [3]; cathepsin G (isolated protease), after 24 h
  metabolised at 24 h, 50 ng/ml: 68%
Cathepsin G [3]; up to 8 h
  degradation with cathepsin G: less than 5%

## Acetyl-OOOQONGOOHQOOOQQOVROSQRORQOOTT
Cathepsin G [5]
  not cleaved: no cleavage with cathepsin G after 5 min up to 4 h incubation

## KKKQKNGKKHQKKKVLKVRKSQRSRQKKTT [CXCL9 (74-103)]
Plasmin [1]; after 5 min
  degradation with plasmin: partial degraded
Plasmin [1]; after 30 minutes
  degradation with plasmin: fully degradation
Cathepsin G [3]; up to 2 h
  stability to cathepsin G: stable
[6]
  metabolised at 4 h, 50 ng/ml: > 90%

B1: VAP-1/SSAO: an endothelial bound adhesion molecule with amine oxidase activity involved in neutrophil egress from the microvasculature (protein, UniProt Q16853 1-763, looked up)
Amine oxidase …: MNQKTILVLLILAVITIFALVCVLLVGRGGDGGEPSQLPHCPSVSPSAQPWTHPGQSQLFADLSREELTAVMRFLTQRLGPGLVDAAQARPSDNCVFSVELQLPPKAAALAHLDRGSPPPAREALAIVFFGRQPQPNVSELVVGPLPHPSYMRDVTVERHGGPLPYHRRPVLFQEYLDIDQMIFNRELPQASGLLHHCCFYKHRGRNLVTMTTAPRGLQSGDRATWFGLYYNISGAGFFLHHVGLELLVNHKALDPARWTIQKVFYQGRYYDSLAQLEAQFEAGLVNVVLIPDNGTGGSWSLKSPVPPGPAPPLQFYPQGPRFSVQGSRVASSLWTFSFGLGAFSGPRIFDVRFQGERLVYEISLQEALAIYGGNSPAAMTTRYVDGGFGMGKYTTPLTRGVDCPYLATYVDWHFLLESQAPKTIRDAFCVFEQNQGLPLRRHHSDLYSHYFGGLAETVLVVRSMSTLLNYDYVWDTVFHPSGAIEIRFYATGYISSAFLFGATGKYGNQVSEHTLGTVHTHSAHFKVDLDVAGLENWVWAEDMVFVPMAVPWSPEHQLQRLQVTRKLLEMEEQAAFLVGSATPRYLYLASNHSNKWGHPRGYRIQMLSFAGEPLPQNSSMARGFSWERYQLAVTQRKEEEPSSSSVFNQNDPWAPTVDFSDFINNETIAGKDLVAWVTAGFLHIPHAEDIPNTVTVGNGVGFFLRPYNFFDEDPSFYSADSIYFRGDQDAGACEVNPLACLPQAAACAPDLPAFSHGGFSHN
K. pneumonia
  bacterial load: increased
  neutrophil recruitment / migration: decreased
